Assay results reported in patent US5043450A, “8-alkoxyquinolonecarboxylic acid and salts thereof” (priority 1986, dated 1991).
≈ marks a conversion by molar mass, not a printed value. Read-outs that look alike come from different tables or passages of the source.

Assays:
Assay type in all cases: cell-based
E. coli ATCC 10536 = test: Antibacterial spectra, MIC; settings: Escherichia coli, ATCC10536
Bacilus subtilis PCI 219 = test: Antibacterial spectra, MIC; settings: Bacillus subtilis, PCI219
Pst. micros UPI 5464-1 = test: Antibacterial spectra, MIC; settings: Parvimonas micra, UPI54641
[1] = system: Propionibacterium acens 11828; test: Antibacterial spectra, MIC
[2] = system: S. aureus IID 670 (Terajima); test: Antibacterial spectra, MIC; settings: Staphylococcus aureus, IID670
[3] = system: Citrobacter freundii IID 976; test: Antibacterial spectra, MIC; settings: IID976
P. aeruginosa IID 1210 = test: Antibacterial spectra, MIC; settings: Pseudomonas aeruginosa, IID1210
P. maltophilia GIFU 2491 = test: Antibacterial spectra, MIC; settings: Stenotrophomonas maltophilia, GIFU2491
[4] = system: Alcaligenes faecalis 0114002; test: Antibacterial spectra, MIC
F. necrophorum S-45 = test: Antibacterial spectra, MIC; settings: Fusobacterium necrophorum, S45
[5] = system: Morganella morganii IID 602; test: Antibacterial spectra, MIC; settings: IID602
K. pneumoniae 1-220S = test: Antibacterial spectra, MIC; settings: Klebsiella pneumoniae, 1220S
[6] = system: Peptococcus magnus KY 017; test: Antibacterial spectra, MIC; settings: Finegoldia magna, KY017
C. ramosum = test: Antibacterial spectra, MIC; settings: Thomasclavelia ramosa
S. pyogenes IID 692 = test: Antibacterial spectra, MIC; settings: Streptococcus pyogenes, IID692
[7] = system: Acinetobacter anitratus IID 876; test: Antibacterial spectra, MIC; settings: Acinetobacter calcoaceticus, IID876
[8] = system: Eubacterium lentum GAI 5242; test: Antibacterial spectra, MIC; settings: Eggerthella lenta, GAI5242
B. fragilis 25285 = test: Antibacterial spectra, MIC; settings: Bacteroides fragilis
B. vulgatus KYA 29327 = test: Antibacterial spectra, MIC; settings: Phocaeicola vulgatus, KYA29327
[9] = system: Serratia marcescens IID 618; test: Antibacterial spectra, MIC; settings: IID618
[10] = system: Bacteroides fragilis GM 7000; test: Antibacterial spectra, MIC; settings: GM7000
[11] = system: Veillonella parvula KYA 10790; test: Antibacterial spectra, MIC; settings: KYA10790
[12] = system: Escherichia coli NIHJ JC-2; test: Antibacterial spectra, MIC; settings: NIHJJC2
[13] = system: Clostridium difficile I-E; test: Antibacterial spectra, MIC; settings: Clostridioides difficile
[14] = system: Yersinia enterocolitica IID 981; test: Antibacterial spectra, MIC; settings: IID981
S. pneumoniae IID 552 = test: Antibacterial spectra, MIC; settings: Streptococcus pneumoniae, IID552
P. mirabilis IID 994 = test: Antibacterial spectra, MIC; settings: Proteus mirabilis, IID994
S. aureus Smith = test: Antibacterial spectra, MIC; settings: Staphylococcus aureus
S. epidermidis IID 866 = test: Antibacterial spectra, MIC; settings: Staphylococcus epidermidis, IID866
[15] = system: Staphylococcus aureus 209 P; test: Antibacterial spectra, MIC
[16] = system: Peptostreptococcus anaerobius KYA 27337; test: Antibacterial spectra, MIC; settings: KYA27337
[17] = system: Salmonella enteritidis IID 604; test: Antibacterial spectra, MIC; settings: Salmonella enterica
F. varium KYA 8501 = test: Antibacterial spectra, MIC; settings: Fusobacterium varium, KYA8501; 10^6 cells/ml; Gram -; read-out: MIC
E. coli ML 4707 = test: Antibacterial spectra, MIC; settings: Escherichia coli, ML4707; 10^6 cells/ml; Gram -
Protocol: (§1) The antibacterial test was carried out according to the method designated by Japan Society of Chemotherapy.

Shigella sonnei IID 969 = test: Antibacterial spectra, MIC; settings: IID969, 10^6 cells/ml, Gram -
Protocol: as §1

[18] = system: Streptococcus pyogenes (S-8); test: Antibacterial spectra, MIC; settings: 10^6 cells/ml, Gram +
Protocol: as §1

[19] = system: Proteus vulgaris IFO 3167; test: Antibacterial spectra, MIC; settings: IFO3167, 10^6 cells/ml, Gram -
Protocol: as §1

E. faecalis IID 682 = test: Antibacterial spectra, MIC; settings: Enterococcus faecalis, IID682; 10^6 cells/ml; Gram +
Protocol: as §1

[20] = system: B. thetaiotaomicron (0661); test: Antibacterial spectra, MIC; settings: Bacteroides thetaiotaomicron
P. aeruginosa IFO 12689 = test: Antibacterial spectra, MIC; settings: Pseudomonas aeruginosa, IFO12689
[21] = system: Enterobacter cloacae IID 977; test: Antibacterial spectra, MIC; settings: IID977
P. cepacia GIFU 518 = test: Antibacterial spectra, MIC; settings: Burkholderia cepacia, GIFU518
[22] = system: Fusobacterium mortiferum 4249; test: Antibacterial spectra, MIC
B. fragilis 0558 = test: Antibacterial spectra, MIC; settings: Bacteroides fragilis
B. distasonis 8503 = test: Antibacterial spectra, MIC; settings: Parabacteroides distasonis
[23] = system: Klebsiella pneumoniae KY(GN)6445; test: Antibacterial spectra, MIC
[24] = system: Pseudomonas aeruginosa V-1; test: Antibacterial spectra, MIC; settings: V1
C. perfringens KYA 13123 = test: microbe, parasite or virus in culture; settings: Clostridium perfringens, KYA13123

COc1c(N2C[C@@H](N)[C@@H](C)C2)c(F)cc2c(=O)c(C(=O)O)cn(C3CC3)c12 (relative stereo) [Exp. 5, 7-(cis-3-amino-4-methyl-1-pyrrolidinyl)-1-cyclopropyl-6-fluoro-1,4-dihydro-8-methoxy-4-oxo-3-quinolinecarboxylic acid]
MIC (E. coli ATCC 10536): 0.0125 µg/mL (≈ 0.0333 µM) | MIC (Bacilus subtilis PCI 219): 0.0125 µg/mL (≈ 0.0333 µM) | MIC (Pst. micros UPI 5464-1): 0.2 µg/mL (≈ 0.533 µM) | MIC ([1]; 10^6 cells/ml, Gram +, read-out: MIC): 1.56 µg/mL (≈ 4.16 µM) | MIC [2]: 0.05 µg/mL (≈ 0.133 µM) | MIC [3]: 0.05 µg/mL (≈ 0.133 µM) | MIC (P. aeruginosa IID 1210): 0.78 µg/mL (≈ 2.08 µM) | MIC (P. maltophilia GIFU 2491): 0.1 µg/mL (≈ 0.266 µM) | MIC [4]: 0.2 µg/mL (≈ 0.533 µM) | MIC (F. necrophorum S-45): 0.2 µg/mL (≈ 0.533 µM) | MIC [5]: 0.05 µg/mL (≈ 0.133 µM) | MIC (K. pneumoniae 1-220S): 0.05 µg/mL (≈ 0.133 µM) | MIC [6]: 0.1 µg/mL (≈ 0.266 µM) | MIC (C. ramosum): 0.78 µg/mL (≈ 2.08 µM) | MIC (S. pyogenes IID 692): 0.1 µg/mL (≈ 0.266 µM) | MIC [7]: 0.05 µg/mL (≈ 0.133 µM) | MIC [8]: ≤ 0.05 µg/mL | MIC (B. fragilis 25285): 0.1 µg/mL (≈ 0.266 µM) | MIC (B. vulgatus KYA 29327): 0.2 µg/mL (≈ 0.533 µM) | MIC [9]: 0.05 µg/mL (≈ 0.133 µM) | MIC [10]: 0.1 µg/mL (≈ 0.266 µM) | MIC [11]: 0.2 µg/mL (≈ 0.533 µM) | MIC [12]: 0.0125 µg/mL (≈ 0.0333 µM) | MIC [13]: 0.39 µg/mL (≈ 1.04 µM) | MIC [14]: 0.05 µg/mL (≈ 0.133 µM) | MIC (S. pneumoniae IID 552): 0.1 µg/mL (≈ 0.266 µM) | MIC (P. mirabilis IID 994): 0.05 µg/mL (≈ 0.133 µM) | MIC (S. aureus Smith): 0.05 µg/mL (≈ 0.133 µM) | MIC (S. epidermidis IID 866): 0.1 µg/mL (≈ 0.266 µM) | MIC [15]: 0.025 µg/mL (≈ 0.0666 µM) | MIC [16]: 0.2 µg/mL (≈ 0.533 µM) | MIC [17]: 0.05 µg/mL (≈ 0.133 µM) | MIC (F. varium KYA 8501): 1.56 µg/mL (≈ 4.16 µM) | MIC (E. coli ML 4707): 0.025 µg/mL (≈ 0.0666 µM) | MIC (Shigella sonnei IID 969): 0.025 µg/mL (≈ 0.0666 µM) | MIC [18]: 0.1 µg/mL | MIC [19]: 0.025 µg/mL (≈ 0.0666 µM) | MIC (E. faecalis IID 682): 0.1 µg/mL | MIC [20]: 0.1 µg/mL (≈ 0.266 µM) | MIC (P. aeruginosa IFO 12689): 0.78 µg/mL (≈ 2.08 µM) | MIC [21]: 0.05 µg/mL (≈ 0.133 µM) | MIC (P. cepacia GIFU 518): 0.78 µg/mL (≈ 2.08 µM) | MIC [22]: 0.2 µg/mL (≈ 0.533 µM) | MIC (B. fragilis 0558): 0.1 µg/mL (≈ 0.266 µM) | MIC (B. distasonis 8503): 0.39 µg/mL (≈ 1.04 µM) | MIC [23]: 0.025 µg/mL (≈ 0.0666 µM) | MIC [24]: 0.78 µg/mL (≈ 2.08 µM)

COc1c(N2C[C@@H](C)[C@H](N)C2)c(F)cc2c(=O)c(C(=O)O)cn(C3CC3)c12 (relative stereo) [Exp. 6, 7-(trans-3-amino-4-methyl-1-pyrrolidinyl)-1-cyclopropyl-6-fluoro-1,4-dihydro-8-methoxy-4-oxo-3-quinolinecarboxylic acid]
MIC (C. perfringens KYA 13123): 0.2 µg/mL (≈ 0.533 µM) | MIC (E. coli ATCC 10536): 0.0125 µg/mL (≈ 0.0333 µM) | MIC (Bacilus subtilis PCI 219): 0.0125 µg/mL (≈ 0.0333 µM) | MIC (Pst. micros UPI 5464-1): 0.2 µg/mL (≈ 0.533 µM) | MIC [1]: 3.13 µg/mL (≈ 8.34 µM) | MIC [2]: 0.05 µg/mL (≈ 0.133 µM) | MIC [3]: 0.05 µg/mL (≈ 0.133 µM) | MIC (P. aeruginosa IID 1210): 0.78 µg/mL (≈ 2.08 µM) | MIC (P. maltophilia GIFU 2491): 0.05 µg/mL (≈ 0.133 µM) | MIC [4]: 0.2 µg/mL (≈ 0.533 µM) | MIC (F. necrophorum S-45): 0.2 µg/mL (≈ 0.533 µM) | MIC [5]: 0.1 µg/mL (≈ 0.266 µM) | MIC (K. pneumoniae 1-220S): 0.05 µg/mL (≈ 0.133 µM) | MIC [6]: ≤ 0.05 µg/mL | MIC (C. ramosum): 0.78 µg/mL (≈ 2.08 µM) | MIC (S. pyogenes IID 692): 0.1 µg/mL (≈ 0.266 µM) | MIC [7]: 0.05 µg/mL (≈ 0.133 µM) | MIC [8]: ≤ 0.05 µg/mL | MIC (B. fragilis 25285): 0.1 µg/mL (≈ 0.266 µM) | MIC (B. vulgatus KYA 29327): 0.2 µg/mL (≈ 0.533 µM) | MIC [9]: 0.05 µg/mL (≈ 0.133 µM) | MIC [10]: 0.1 µg/mL (≈ 0.266 µM) | MIC [11]: 0.2 µg/mL (≈ 0.533 µM) | MIC [12]: 0.0125 µg/mL (≈ 0.0333 µM) | MIC [13]: 0.78 µg/mL (≈ 2.08 µM) | MIC [14]: 0.05 µg/mL (≈ 0.133 µM) | MIC (S. pneumoniae IID 552): 0.1 µg/mL (≈ 0.266 µM) | MIC (P. mirabilis IID 994): 0.05 µg/mL (≈ 0.133 µM) | MIC (S. aureus Smith): 0.05 µg/mL (≈ 0.133 µM) | MIC (S. epidermidis IID 866): 0.1 µg/mL (≈ 0.266 µM) | MIC [15]: 0.025 µg/mL (≈ 0.0666 µM) | MIC [16]: 0.1 µg/mL (≈ 0.266 µM) | MIC [17]: 0.05 µg/mL (≈ 0.133 µM) | MIC (F. varium KYA 8501): 1.56 µg/mL (≈ 4.16 µM) | MIC (E. coli ML 4707): 0.0125 µg/mL (≈ 0.0333 µM) | MIC (Shigella sonnei IID 969): 0.0125 µg/mL (≈ 0.0333 µM) | MIC [18]: 0.05 µg/mL | MIC [19]: 0.05 µg/mL (≈ 0.133 µM) | MIC (E. faecalis IID 682): 0.1 µg/mL | MIC [20]: 0.2 µg/mL (≈ 0.533 µM) | MIC (P. aeruginosa IFO 12689): 0.78 µg/mL (≈ 2.08 µM) | MIC [21]: 0.05 µg/mL (≈ 0.133 µM) | MIC (P. cepacia GIFU 518): 0.39 µg/mL (≈ 1.04 µM) | MIC [22]: 0.2 µg/mL (≈ 0.533 µM) | MIC (B. fragilis 0558): 0.1 µg/mL (≈ 0.266 µM) | MIC (B. distasonis 8503): 0.39 µg/mL (≈ 1.04 µM) | MIC [23]: 0.05 µg/mL (≈ 0.133 µM) | MIC [24]: 0.78 µg/mL (≈ 2.08 µM)
